In patent publication US20040044043A1, “Thiazolidinedione derivative and its use as antidiabetic” (priority 2000, published 2004):

Key:
[1] = Solubility in water (visual, confirmed by HPLC assay of a saturated solution); format: physicochemical; conditions: thermodynamic from solid
Method: The visual solubility was confirmed by an HPLC assay of a saturated solution. Solubility: >100 mg/ml.

[2] = Solid state stability of the drug substance (storage, HPLC assay); format: physicochemical; conditions: 1 month
Method: The solid state stability of the drug substance was determined by storing approximately 1.0 g of the material in a glass bottle at a) 40° C./75% Relative Humidity (RH), open exposure, for 1 month and b) at 50° C., closed, for 1 month. The material was assayed by HPLC for final content and degradation products in both cases.

CCS(=O)(=O)O.CN(CCOc1ccc(CC2SC(=O)NC2=O)cc1)c1ccccn1 (centres unmarked) [Ethanesulfonate, 5-[4-[2-(N-methyl-N-(2-pyridyl)amino)ethoxy]benzyl]thiazolidine-2,4-dione ethanesulfonate]
solubility [1]: > 100 mg/mL | Degradation (HPLC degradation products) ([2]; 40° C./75% RH, open exposure): No significant degradation observed | HPLC assay for final content ([2]; 40° C./75% RH, open exposure): 99 % initial | Degradation (HPLC degradation products) ([2]; 50° C., closed): No significant degradation observed | HPLC assay for final content ([2]; 50° C., closed): 100 % initial
